# ChEMBL document CHEMBL5214926, “Recent contribution of medicinally active 2-aminothiophenes: A privileged scaffold for drug discovery” (Eur J Med Chem, 2022)
# How the values were obtained:
# [1] = Antiproliferative activity against human U-87 MG cells assessed as cell growth inhibition by MTT assay; assay type: functional, cell-based, U-87MG ATCC
# NCI-H460 = assay: Antiproliferative activity against human NCI-H460 cells assessed as cell growth inhibition by MTT assay
# MKN-45 = assay: Antiproliferative activity against human MKN-45 cells assessed as cell growth inhibition by MTT assay
# SMMC-7721 = assay: Antiproliferative activity against human SMMC-7721 cells assessed as cell growth inhibition by MTT assay
# A549 = assay: cells; settings: Homo sapiens
# Description: Antiproliferative activity against human A549 cells assessed as cell growth inhibition by MTT assay
# HT-29 = assay: cells; settings: Homo sapiens
# Description: Antiproliferative activity against human HT-29 cells assessed as cell growth inhibition by MTT assay
# Leishmania amazonensis = assay: Anti-promastigote activity against Leishmania amazonensis (IFLA/BR/67/PH8) assessed as promastigote growth inhibition incubated for 72 hrs by microscopic analysis; assay type: functional, organism-based
# HepG2 = assay: Cytotoxicity against human HepG2 cells assessed as cell growth inhibition incubated for 48 hrs by MTT assay; assay type: functional, cell-based
# MCF7 = assay: Cytotoxicity against human MCF7 cells assessed as cell growth inhibition incubated for 48 hrs by MTT assay; assay type: functional, cell-based; settings: MCF7, 48 h
# Trichophyton tonsurans [2] = assay: Antifungal activity against Trichophyton tonsurans 700 assessed as fungal growth inhibition by spectrophotometry; assay type: functional
# Trichophyton tonsurans [3] = assay: Antifungal activity against Trichophyton tonsurans 2822 assessed as fungal growth inhibition by spectrophotometry; assay type: functional
# Trichophyton rubrum = assay: Antifungal activity against Trichophyton rubrum 6753 assessed as fungal growth inhibition by spectrophotometry; assay type: functional
# Staphylococcus coagulans = assay: Antimicrobial activity against Staphylococcus coagulans assessed as microbial growth inhibition incubated for 24 hrs by disc diffusion assay; assay type: functional
# Heyndrickxia coagulans = assay: Antibacterial activity against Bacillus coagulans assessed as bacterial growth inhibition; assay type: functional
# Enterococcus faecalis = assay: Antibacterial activity against Enterococcus faecalis assessed as bacterial growth inhibition; assay type: functional
# Staphylococcus aureus [4] = assay: Antibacterial activity against Staphylococcus aureus NCIM 2010 assessed as bacterial growth inhibition incubated for 8 hrs by absorbance based assay; assay type: functional
# Bacillus subtilis [5] = assay: Antibacterial activity against Bacillus subtilis NCIM 2079 assessed as bacterial growth inhibition incubated for 8 hrs by absorbance based assay; assay type: functional
# Escherichia coli = assay: Antibacterial activity against Escherichia coli NCIM 2688 assessed as bacterial growth inhibition incubated for 8 hrs by absorbance based assay; assay type: functional
# Pseudomonas aeruginosa = assay: Antibacterial activity against Pseudomonas aeruginosa NCIM 2036 assessed as bacterial growth inhibition incubated for 8 hrs by absorbance based assay; assay type: functional
# Staphylococcus aureus [6] = assay: Antibacterial activity against Staphylococcus aureus NCIM 2010 assessed as reduction in bacterial growth incubated for 8 hrs by absorbance based assay; assay type: functional, organism-based; settings: NCIM 2010, 8 h
# Bacillus subtilis [7] = assay: Antibacterial activity against Bacillus subtilis NCIM 2079 assessed as reduction in bacterial growth incubated for 8 hrs by absorbance based assay; assay type: functional, organism-based; settings: NCIM 2079, 8 h
# [8] = test system: Mycobacterium tuberculosis; assay: Antimycobacterial activity against Mycobacterium tuberculosis H37Ra incubated for 8 to 12 days by XTT reduction menadione assay; assay type: functional; settings: time 8-12 day
# Epidermophyton floccosum = assay: Antifungal activity against Epidermophyton floccosum 6999 assessed as fungal growth inhibition by spectrophotometry; assay type: functional
# NCI-H1299 = assay: Cytotoxicity against human NCI-H1299 cells assessed as cell growth inhibition incubated for 48 hrs by SRB assay; assay type: functional, cell-based; settings: NCI-H1299, 48 h
# [9] = Inhibition of CaCC (unknown origin) current potentiation; design: species or system Homo sapiens
# [10] = Leishmania amazonensis, IFLA/BR/67/PH8, 72 h
compound,measurement,setting,value
CCOC(=O)c1c(N)sc(C(=O)Nc2ccc(Cl)cc2)c1-c1ccccc1,IC50,[1],0.39 µM
same,IC50,NCI-H460,0.38 µM
same,IC50,MKN-45,0.26 µM
same,IC50,SMMC-7721,0.42 µM
same,IC50,A549,0.23 µM
same,IC50,HT-29,0.19 µM
N#Cc1c(/N=C/c2c3ccccc3nc3ccccc23)sc2c1CCC2,EC50,Leishmania amazonensis; [10],> 500 µM
CCOC(=O)c1c(NC(=O)CC#N)sc(C(=O)Nc2ccc(Cl)cc2)c1-c1ccccc1,IC50,[1],0.43 µM
same,IC50,NCI-H460,0.43 µM
same,IC50,MKN-45,0.39 µM
same,IC50,SMMC-7721,0.73 µM
same,IC50,A549,0.6 µM
same,IC50,HT-29,0.62 µM
CC(=O)c1ccc(Nc2c(C(=O)/C=C/c3ccccc3)sc(/N=C/c3ccccc3)c2C#N)cc1,IC50,"HepG2; Homo sapiens, HepG2, 48 h",19.1 µM
same,IC50,HepG2; hepg2,26.2 µM
same,IC50,MCF7,19.1 µM
N#Cc1ccsc1/N=C/c1c(Cl)cccc1Cl,MIC,Trichophyton tonsurans [2],64 µg/mL
same,MIC,Trichophyton tonsurans [3],256 µg/mL
same,MIC,Trichophyton rubrum,32 µg/mL
CC(=O)c1ccc(Nc2c(C(=O)/C=C/c3ccccc3)sc(N)c2C#N)cc1,IC50,"HepG2; Homo sapiens, HepG2, 48 h",73.6 µM
same,IC50,MCF7,67.5 µM
N#Cc1c(NC(=O)c2cc(O)c(O)c(O)c2)sc2c1CCC2,MIC,Staphylococcus coagulans,0.32 µM
same,MIC,Heyndrickxia coagulans,0.1 µg/mL
same,MIC,Enterococcus faecalis,0.25 µg/mL
CC1=C(C(=O)O)N2C(=O)[C@@H](NC(=O)[C@H](N)c3ccccc3)[C@H]2SC1 [CEPHALEXIN ANHYDROUS],MIC,Staphylococcus aureus [4],2.39 µg/mL
same,MIC,Bacillus subtilis [5],1.87 µg/mL
same,MIC,Escherichia coli,4.94 µg/mL
same,MIC,Pseudomonas aeruginosa,> 10 µg/mL
same,EC50,Staphylococcus aureus [6],0.77 µM
same,EC50,Bacillus subtilis [7],0.25 µM
COC(=O)c1ccsc1NC(=O)N[C@@H](C(=O)N[C@@H]1C(=O)N2[C@@H]1SC(C)(C)[C@@H]2C(=O)O)c1ccccc1,MIC,Staphylococcus aureus [4],0.28 µg/mL
same,MIC,Bacillus subtilis [5],0.55 µg/mL
same,MIC,Escherichia coli,> 10 µg/mL
same,MIC,Pseudomonas aeruginosa,> 10 µg/mL
same,MIC,[8],> 50 µg/mL
same,EC50,Staphylococcus aureus [6],0.16 µM
same,EC50,Bacillus subtilis [7],0.21 µM
CCOC(=O)c1c(Nc2c3ccc(Cl)cc3nc3ccc(OC)cc23)sc2c1CCCCC2,EC50,Leishmania amazonensis; [10],26.6 µM
Cc1sc(NC(=O)c2cc(O)c(O)c(O)c2)c(C#N)c1C,MIC,Staphylococcus coagulans,0.49 µM
same,MIC,Heyndrickxia coagulans,0.15 µg/mL
same,MIC,Enterococcus faecalis,0.25 µg/mL
COc1cccc2c1C(=O)c1c(O)c3c(c(O)c1C2=O)C[C@@](O)(C(=O)CO)C[C@@H]3O[C@H]1C[C@H](N)[C@H](O)[C@H](C)O1 [DOXORUBICIN],IC50,"HepG2; Homo sapiens, HepG2, 48 h",4.17 µM
COc1ccc2nc3cc(Cl)ccc3c(Nc3sc4c(c3C(N)=O)CCCC4)c2c1,EC50,Leishmania amazonensis; [10],31.8 µM
N#Cc1ccsc1/N=C/c1cccc([N+](=O)[O-])c1,MIC,Epidermophyton floccosum,64 µg/mL
same,MIC,Trichophyton rubrum,128 µg/mL
COC(=O)c1c(NC(=O)N[C@@H](C(=O)N[C@@H]2C(=O)N3[C@@H]2SC(C)(C)[C@@H]3C(=O)O)c2ccc(O)cc2)sc2c1CCCCCC2,MIC,Staphylococcus aureus [4],0.28 µg/mL
same,MIC,Bacillus subtilis [5],2.57 µg/mL
same,MIC,Escherichia coli,> 10 µg/mL
same,MIC,Pseudomonas aeruginosa,> 10 µg/mL
same,MIC,[8],> 50 µg/mL
same,EC50,Staphylococcus aureus [6],0.16 µM
same,EC50,Bacillus subtilis [7],0.25 µM
CCOC(=O)c1c(N)sc(C(=O)Nc2ccccc2)c1-c1ccccc1,IC50,[1],7.42 µM
same,IC50,NCI-H460,8.59 µM
same,IC50,MKN-45,8.09 µM
same,IC50,SMMC-7721,8.58 µM
same,IC50,A549,6.8 µM
same,IC50,HT-29,7.49 µM
N#Cc1c(NC(=O)CNc2n[nH]c3ncccc23)sc2c1CCCC2,IC50,NCI-H1299,0.0125 µM
C=CCNC(=S)Nc1sc2c(c1C(=O)OC)CCC(C(C)(C)C)C2 (centres undefined),IC50,[9],49.7 µM
COC(=O)c1c(N)sc2c1CCC(C(C)(C)C)C2 (centres undefined),IC50,[9],4.6 µM
N#Cc1c(N)sc(C(=O)Nc2ccc(Cl)cc2)c1-c1ccccc1,IC50,[1],0.59 µM
same,IC50,NCI-H460,0.76 µM
same,IC50,MKN-45,0.42 µM
same,IC50,SMMC-7721,0.69 µM
same,IC50,A549,0.7 µM
same,IC50,HT-29,0.65 µM
COc1ccc2nc3cc(Cl)ccc3c(Nc3sc4c(c3C#N)CCCCC4)c2c1,EC50,Leishmania amazonensis; [10],32.3 µM
CCOC(=O)c1c(Nc2c3ccc(Cl)cc3nc3ccc(OC)cc23)sc2c1CCCC2,EC50,Leishmania amazonensis,26.6 µM
same,EC50,Leishmania amazonensis; [10],51.4 µM
N#CCC(=O)Nc1sc(C(=O)Nc2ccccc2)c(-c2ccccc2)c1C#N,IC50,[1],6.28 µM
same,IC50,NCI-H460,8.06 µM
same,IC50,MKN-45,9.14 µM
same,IC50,SMMC-7721,7.93 µM
same,IC50,A549,7.59 µM
same,IC50,HT-29,6.59 µM
N#Cc1c(NC(=O)c2cc(O)c(O)c(O)c2)sc2c1CCCC2,MIC,Staphylococcus coagulans,0.45 µM
same,MIC,Heyndrickxia coagulans,0.15 µg/mL
same,MIC,Enterococcus faecalis,0.17 µg/mL
